Where “and” joins values, the source holds several entries; their conditions need not be identical. Equal values may be shown once.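 Method: 48-hour compound exposure of cells in 96-well plates, five concentrations, linear interpolation of endpoints. GI50 is the concentration that inhibits growth by half. TGI: total growth inhibition.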
Key:
Test in all cases: DTP human tumour cell line panel, 48 h
TK-10 renal = tested on: TK-10 renal
LOX IMVI melanoma = tested on: LOX IMVI melanoma
HOP-18 NSCLC = tested on: HOP-18 NSCLC
SF-539 CNS = tested on: SF-539 CNS
SF-295 CNS = tested on: SF-295 CNS
A498 renal = tested on: A498 renal
SW-620 colon = tested on: SW-620 colon
KM20L2 colon = tested on: KM20L2 colon
EKVX NSCLC = tested on: EKVX NSCLC
UACC-257 melanoma = tested on: UACC-257 melanoma
OVCAR-5 ovarian = tested on: OVCAR-5 ovarian
RPMI-8226 leukemia = tested on: RPMI-8226 leukemia
ACHN renal = tested on: ACHN renal
SNB-75 CNS = tested on: SNB-75 CNS
RXF 393 renal = tested on: RXF 393 renal
SK-MEL-28 melanoma = tested on: SK-MEL-28 melanoma
NCI-H522 lung = tested on: NCI-H522 lung
HCT-116 colon = tested on: HCT-116 colon
UO-31 renal = tested on: UO-31 renal
M14 melanoma = tested on: M14 melanoma
HCC-2998 colon = tested on: HCC-2998 colon
SK-OV-3 ovarian = tested on: SK-OV-3 ovarian
A549 NSCLC = tested on: A549 NSCLC
NCI-H23 lung = tested on: NCI-H23 lung
OVCAR-8 ovarian = tested on: OVCAR-8 ovarian
U251 CNS = tested on: U251 CNS
SNB-19 CNS = tested on: SNB-19 CNS
MOLT-4 leukemia = tested on: MOLT-4 leukemia
DLD-1 colon = tested on: DLD-1 colon
HOP-62 NSCLC = tested on: HOP-62 NSCLC
SK-MEL-2 melanoma = tested on: SK-MEL-2 melanoma
NCI-H226 lung = tested on: NCI-H226 lung
SN12C renal = tested on: SN12C renal
CAKI-1 renal = tested on: CAKI-1 renal
NCI-H460 lung = tested on: NCI-H460 lung
KM12 colon = tested on: KM12 colon
HT29 colon = tested on: HT29 colon
SF-268 CNS = tested on: SF-268 CNS
OVCAR-3 ovarian = tested on: OVCAR-3 ovarian
DMS 273 small cell lung = tested on: DMS 273 small cell lung
XF 498 CNS = tested on: XF 498 CNS
M19-MEL melanoma = tested on: M19-MEL melanoma
SR leukemia = tested on: SR leukemia
HL-60(TB) leukemia = tested on: HL-60(TB) leukemia
UACC-62 melanoma = tested on: UACC-62 melanoma
786-0 renal = tested on: 786-0 renal
MALME-3M melanoma = tested on: MALME-3M melanoma
CCRF-CEM leukemia = tested on: CCRF-CEM leukemia
COLO 205 colon = tested on: COLO 205 colon
SNB-78 CNS = tested on: SNB-78 CNS
LXFL 529 NSCLC = tested on: LXFL 529 NSCLC
HCT-15 colon = tested on: HCT-15 colon
IGROV1 ovarian = tested on: IGROV1 ovarian
SK-MEL-5 melanoma = tested on: SK-MEL-5 melanoma
K-562 leukemia = tested on: K-562 leukemia
OVCAR-4 ovarian = tested on: OVCAR-4 ovarian
HOP-92 NSCLC = tested on: HOP-92 NSCLC

Question: Which results are given for `COc1ccc(/C(Cl)=C(\CN(C)C)c2ccc(OC)c(OC)c2)cc1OC`?
Answer: GI50 (TK-10 renal): > 27.9 µM; TGI (TK-10 renal): > 100 µM; TGI (LOX IMVI melanoma): > 100 µM; TGI (HOP-18 NSCLC): > 100 µM; TGI (SF-539 CNS): > 100 µM; TGI (SF-295 CNS): > 100 µM; TGI (A498 renal): > 100 µM; TGI (SW-620 colon): > 100 µM; TGI (KM20L2 colon): > 100 µM; TGI (EKVX NSCLC): > 100 µM; TGI (UACC-257 melanoma): > 100 µM; TGI (OVCAR-5 ovarian): > 100 µM; TGI (RPMI-8226 leukemia): > 100 µM; TGI (ACHN renal): > 100 µM; TGI (SNB-75 CNS): > 100 µM; TGI (RXF 393 renal): > 28.6 µM; TGI (SK-MEL-28 melanoma): > 100 µM; TGI (NCI-H522 lung): > 100 µM; TGI (HCT-116 colon): > 46.4 µM; TGI (UO-31 renal): > 100 µM; TGI (M14 melanoma): > 100 µM; TGI (HCC-2998 colon): > 100 µM; TGI (SK-OV-3 ovarian): > 100 µM; TGI (A549 NSCLC): > 100 µM; TGI (NCI-H23 lung): > 100 µM; TGI (OVCAR-8 ovarian): > 100 µM; TGI (U251 CNS): > 100 µM; TGI (SNB-19 CNS): > 100 µM; TGI (MOLT-4 leukemia): > 100 µM; TGI (DLD-1 colon): > 100 µM; TGI (HOP-62 NSCLC): > 100 µM; TGI (SK-MEL-2 melanoma): > 100 µM; TGI (NCI-H226 lung): > 100 µM; TGI (SN12C renal): > 100 µM; TGI (CAKI-1 renal): > 100 µM; TGI (NCI-H460 lung): > 100 µM; TGI (KM12 colon): > 100 µM; TGI (HT29 colon): > 100 µM; TGI (SF-268 CNS): > 100 µM; TGI (OVCAR-3 ovarian): > 100 µM; TGI (DMS 273 small cell lung): > 100 µM; TGI (XF 498 CNS): > 100 µM; TGI (M19-MEL melanoma): > 100 µM; TGI (SR leukemia): > 100 µM; TGI (HL-60(TB) leukemia): > 100 µM; TGI (UACC-62 melanoma): > 100 µM; TGI (786-0 renal): > 100 µM; TGI (MALME-3M melanoma): > 100 µM; TGI (CCRF-CEM leukemia): > 100 µM; TGI (COLO 205 colon): > 100 µM; TGI (SNB-78 CNS): 97.9 µM and > 100 µM; TGI (LXFL 529 NSCLC): > 100 µM; TGI (HCT-15 colon): > 100 µM; TGI (IGROV1 ovarian): > 100 µM; TGI (SK-MEL-5 melanoma): > 100 µM; TGI (K-562 leukemia): > 100 µM

Question: For `CC1=CC2C(=O)N(c3ccccc3)C(=O)C2CC1n1[nH]c(=O)n(Cc2ccccc2)c1=O` (stereo not given), which TGI (TK-10 renal) is on record?
Answer: > 100 µM

Question: And the TGI (LOX IMVI melanoma)?
Answer: > 100 µM

Question: And the TGI (HOP-18 NSCLC)?
Answer: > 100 µM

Question: What about the TGI (SF-539 CNS) of the same compound?
Answer: > 100 µM

Question: What about the TGI (SF-295 CNS) of the same compound?
Answer: > 100 µM

Question: What about the TGI (A498 renal) of the same compound?
Answer: > 100 µM

Question: What about the TGI (SW-620 colon) of the same compound?
Answer: > 100 µM

Question: And the TGI (KM20L2 colon)?
Answer: > 100 µM

Question: What about the TGI (EKVX NSCLC) of the same compound?
Answer: > 100 µM

Question: And the TGI (UACC-257 melanoma)?
Answer: > 100 µM

Question: And the TGI (OVCAR-5 ovarian)?
Answer: > 100 µM

Question: And the TGI (ACHN renal)?
Answer: > 100 µM

Question: And the TGI (SNB-75 CNS)?
Answer: > 100 µM

Question: And the TGI (RXF 393 renal)?
Answer: > 100 µM

Question: What about the TGI (SK-MEL-28 melanoma) of the same compound?
Answer: > 100 µM

Question: And the TGI (NCI-H522 lung)?
Answer: > 100 µM

Question: And the TGI (HCT-116 colon)?
Answer: > 100 µM

Question: And the TGI (UO-31 renal)?
Answer: > 100 µM

Question: And the TGI (M14 melanoma)?
Answer: > 100 µM

Question: What about the TGI (HCC-2998 colon) of the same compound?
Answer: > 100 µM

Question: And the TGI (OVCAR-4 ovarian)?
Answer: > 100 µM

Question: What about the TGI (SK-OV-3 ovarian) of the same compound?
Answer: > 100 µM

Question: And the TGI (A549 NSCLC)?
Answer: > 100 µM

Question: And the TGI (NCI-H23 lung)?
Answer: > 100 µM

Question: What about the TGI (OVCAR-8 ovarian) of the same compound?
Answer: > 100 µM

Question: What about the TGI (U251 CNS) of the same compound?
Answer: > 100 µM

Question: And the TGI (SNB-19 CNS)?
Answer: > 100 µM

Question: What about the TGI (DLD-1 colon) of the same compound?
Answer: > 100 µM

Question: And the TGI (HOP-62 NSCLC)?
Answer: > 100 µM

Question: What about the TGI (SK-MEL-2 melanoma) of the same compound?
Answer: > 100 µM

Question: And the TGI (NCI-H226 lung)?
Answer: > 100 µM

Question: And the TGI (SN12C renal)?
Answer: > 100 µM

Question: And the TGI (CAKI-1 renal)?
Answer: > 100 µM

Question: What about the TGI (NCI-H460 lung) of the same compound?
Answer: > 100 µM

Question: What about the TGI (KM12 colon) of the same compound?
Answer: > 100 µM

Question: What about the TGI (HT29 colon) of the same compound?
Answer: > 100 µM

Question: And the TGI (SF-268 CNS)?
Answer: > 100 µM

Question: What about the TGI (OVCAR-3 ovarian) of the same compound?
Answer: > 100 µM

Question: What about the TGI (DMS 273 small cell lung) of the same compound?
Answer: > 100 µM

Question: And the TGI (XF 498 CNS)?
Answer: > 100 µM

Question: What about the TGI (SR leukemia) of the same compound?
Answer: > 100 µM

Question: What about the TGI (HL-60(TB) leukemia) of the same compound?
Answer: > 100 µM

Question: And the TGI (UACC-62 melanoma)?
Answer: > 100 µM

Question: And the TGI (786-0 renal)?
Answer: > 100 µM

Question: What about the TGI (MALME-3M melanoma) of the same compound?
Answer: > 100 µM

Question: And the TGI (CCRF-CEM leukemia)?
Answer: > 100 µM

Question: And the TGI (COLO 205 colon)?
Answer: > 100 µM

Question: What about the TGI (SNB-78 CNS) of the same compound?
Answer: > 100 µM

Question: What about the TGI (LXFL 529 NSCLC) of the same compound?
Answer: > 100 µM

Question: What about the TGI (HCT-15 colon) of the same compound?
Answer: > 100 µM

Question: What about the TGI (IGROV1 ovarian) of the same compound?
Answer: > 100 µM

Question: What about the TGI (HOP-92 NSCLC) of the same compound?
Answer: > 100 µM

Question: And the TGI (SK-MEL-5 melanoma)?
Answer: > 100 µM

Question: And the TGI (K-562 leukemia)?
Answer: > 100 µM

From PubChem BioAssay (NCI)
